Values quoted from earlier work as cited in patent publication US7232830B2, “Method for treatment of neurodegenerative diseases and effects of aging” (priority 1998, dated 2007).
Where a name gives a salt, the structure may show the parent alone.

What was measured:
[1] = test system: histamine metabolism in the mouse brain
MAO-B = target: T1, MAO-B (Rattus norvegicus, UniProt P19643); conditions: in vitro, rat brain
T1 construct: in vitro on monoamine oxidase activity in the rat brain; host or cells: rat brain
T1 sequence (P19643 1-520): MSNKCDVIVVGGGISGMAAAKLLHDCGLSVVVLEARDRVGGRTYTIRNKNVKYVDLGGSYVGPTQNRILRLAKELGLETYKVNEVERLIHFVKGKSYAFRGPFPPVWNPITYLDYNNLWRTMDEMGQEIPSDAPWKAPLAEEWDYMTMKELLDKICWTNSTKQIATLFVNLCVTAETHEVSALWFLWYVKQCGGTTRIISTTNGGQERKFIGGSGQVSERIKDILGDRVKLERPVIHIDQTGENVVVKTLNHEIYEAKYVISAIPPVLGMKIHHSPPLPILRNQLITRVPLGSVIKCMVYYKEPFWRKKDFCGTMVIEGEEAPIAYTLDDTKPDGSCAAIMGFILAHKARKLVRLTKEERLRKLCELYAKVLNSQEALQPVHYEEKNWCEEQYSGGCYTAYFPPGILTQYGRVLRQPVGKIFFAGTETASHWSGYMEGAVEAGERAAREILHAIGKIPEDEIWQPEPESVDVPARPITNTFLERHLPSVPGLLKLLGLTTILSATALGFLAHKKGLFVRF

Row | Compound | effect on a histidine decarboxylase inhibitor [1] | effect on histamine increase induced by a histamine N-methyltransferase inhibitor [1] | effect on MAO-B (MAO-B)
1 | COC(=O)[C@H]1[C@H]2C[C@@H]3c4[nH]c5cc(OC)ccc5c4CCN3C[C@H]2C[C@@H](OC(=O)c2cc(OC)c(OC)c(OC)c2)[C@@H]1OC [reserpine] | no significant affect | inhibited the histamine increase | –
2 | S=C(NC1CCCCC1)N1CCC(c2cnc[nH]2)CC1 [thioperamide maleate] | – | – | inhibits MAO-B
